Data taken from paper PMC5884906, “Single Administration of HBK-15—a Triple 5-HT1A, 5-HT7, and 5-HT3 Receptor Antagonist—Reverses Depressive-Like Behaviors in Mouse Model of Depression Induced by Corticosterone” (Molecular Neurobiology, 2017).
Several values for one entry are separate records, joined by “and”; a condition that tells them apart may be missing. Identical values can stand only once. Like-named read-outs stand apart in the source and are kept apart here.

Key:
[1] = distribution to brain after i.v. and i.p. administration; assay type: in vivo, mice; conditions: for Kp: brain and plasma, HBK-14 2.5 mg/kg, HBK-15 1.25 mg/kg, read-out: brain/plasma ratio
Experimental: For pharmacokinetic study, HBK-14 and HBK-15 dissolved in saline were administered by an intravenous (i.v.) and intraperitoneal (i.p.) administration at a dose of 2.5 and 1.25 mg/kg, respectively. Blood samples were collected at 0 min (predose), 5 min, 15 min, 30 min, 60 min, 120 min, and 240 min after compounds administration. The blood and brain samples were collected under general anesthesia induced by i.p. injections of 50 mg/kg ketamine plus 8 mg/kg xylazine. Blood samples were collected into heparinized tubes. The samples were immediately centrifuged at 3500 rpm for 10 min, and plasma was collected. The brain and plasma samples were immediately frozen at −80 °C for further analysis.
The quantification of studied compounds in plasma and brain samples was accomplished using UFLC Nexera system (Shimadzu, Kyoto, Japan) coupled to the triple quadrupole mass spectrometer QTrap 5500 (Sciex, Framingham, MA, USA) equipped with Turbo V™ ion source. After preparation, the samples were injected (5 μL) onto Acquity UPLC BEH C18 (3.0 × 100 mm, 1.7 μm, Waters, Milford, MA, USA) analytical column. The mobile phases that consisted of ACN with 0.1% FA (A) and water with 0.1% FA (B) were delivered in isocratic elution mode (40% A, 60% B) at the flow rate of 550 μL/min. The total time of analysis was 8 min including 2 min of column equilibration.
An amount of 50 μL of sample (plasma or brain homogenate) was transferred into the clean Eppendorf tube and spiked with 5 μL of internal standard solution (IS, 1 μg/mL) obtaining the final concentration of 100 ng/mL. After 5 min of mixing (1500 rpm), proteins were precipitated using 150 μL ACN. After 10 min of samples shaking (1500 rpm), the incubation step was performed (10 min, 4 °C). Next, samples were centrifuged (10,000 rpm, 10 min, 4 °C) and the supernatant was transferred into chromatographic vial for LC/MS/MS analysis.
The brain homogenate was prepared maintaining the tissue: phosphate-buffered saline (PBS) ratio at 1:5. The homogenization was carried out employing IKA® T10 Basic ULTRA-TURRAX disperser (IKA Werke GmbH & Co. KG, Staufen, Germany). After homogenization, all samples were centrifuged (3000 rpm, 10 min, 4 °C) and 50 μL of supernatant was collected for further preparation. All samples were stored on ice during the preparation process.

[2] = test system: corticosterone-treated mice; assay: elevated plus maze, chronic administration, corticosterone model; assay type: in vivo
Experimental: The doses and route of administration of the studied compounds were based on our previous experiments. […] Mice were injected with corticosterone (s.c., 20 mg/kg) at random times during the light phase for 21 consecutive days (Fig. 1b). The dose and route of administration of corticosterone was based on studies performed by Zhao and colleagues. Thirty minutes before, corticosterone injection mice were given (i.p.) saline, HBK-14 (1.25 or 2.5 mg/kg), HBK-15 (0.625 or 1.25 mg/kg), or fluoxetine (10 mg/kg) (Fig. 1b). Control mice received (i.p.) saline and 30 min later saline containing 0.1% dimethyl sulfoxide (DMSO) and 0.1% Tween-80 (s.c.). The experimental groups consisted of eight randomly selected animals. After the end of the procedure, animals were tested in the sucrose preference test, forced swim test, elevated plus maze test, and spontaneous locomotor activity test. Following behavioral testing, rodents were scarified and their hippocampi collected for biochemical analysis. The elevated plus maze was performed according to the method previously described. […] Each mouse was individually placed at the central field of the apparatus with the head turned toward one of the closed arms. […] The device was disinfected with 70% ethanol after each mouse. The number of entries to open and closed arms and time spent in the open and closed arms were measured. The experiments were recorded and scored using aLab.io software by a trained observer blind to the treatments.

[3] = target: T1, 5-HT3 receptors expressed in guinea pig ileum (Cavia porcellus, UniProt O70212); assay: guinea pig ileum contractions induced by serotonin; assay type: biochemical; conditions: for type of antagonism at 5-HT3 receptors: from depression of serotonin maximum; for Kd: functional affinity, double-reciprocal plot, read-out: 5-HT3 receptor pK B ± S.E.M (converted)
T1 construct: A segment (15 cm) of male guinea pig ileum was excised from the small intestine; from tissue; host or cells: isolated male guinea pig ileum segments in an organ bath
T1 sequence (O70212 20-490): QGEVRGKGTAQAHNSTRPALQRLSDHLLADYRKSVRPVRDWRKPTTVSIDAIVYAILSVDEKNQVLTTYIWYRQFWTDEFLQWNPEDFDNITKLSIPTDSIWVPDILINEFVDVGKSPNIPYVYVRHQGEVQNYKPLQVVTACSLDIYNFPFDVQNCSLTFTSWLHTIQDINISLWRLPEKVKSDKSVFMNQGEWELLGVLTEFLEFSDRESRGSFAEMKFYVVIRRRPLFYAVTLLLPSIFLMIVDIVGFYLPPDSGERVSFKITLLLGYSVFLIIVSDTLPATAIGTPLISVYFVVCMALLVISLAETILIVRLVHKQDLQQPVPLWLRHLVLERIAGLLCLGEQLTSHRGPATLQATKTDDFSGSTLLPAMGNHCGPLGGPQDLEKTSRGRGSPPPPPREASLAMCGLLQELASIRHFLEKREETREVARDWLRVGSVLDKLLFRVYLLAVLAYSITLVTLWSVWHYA

[4] = cited from earlier work
[5] = cited from earlier work; remark: listed apart in the source
[6] = test system: corticosterone-treated mice; assay: forced swim test, chronic administration, corticosterone model; assay type: in vivo; conditions: for effect on corticosterone-induced increase in immobility: 21 days
Experimental: The dose and route of administration of corticosterone was based on studies performed by Zhao and colleagues. Thirty minutes before, corticosterone injection mice were given (i.p.) saline, HBK-14 (1.25 or 2.5 mg/kg), HBK-15 (0.625 or 1.25 mg/kg), or fluoxetine (10 mg/kg) (Fig. 1b). Control mice received (i.p.) saline and 30 min later saline containing 0.1% dimethyl sulfoxide (DMSO) and 0.1% Tween-80 (s.c.). The experimental groups consisted of eight randomly selected animals. After the end of the procedure, animals were tested in the sucrose preference test, forced swim test, elevated plus maze test, and spontaneous locomotor activity test. Following behavioral testing, rodents were scarified and their hippocampi collected for biochemical analysis. Forced swim test was performed according to the method described by Porsolt and colleagues and previously described. Mice were placed individually for 6 min in glass cylinders (height 25 cm, diameter 10 cm) containing […] (23–25 °C). The total time of immobility was recorded during the final 4 min of the test. The experiments were recorded and scored using aLab.io software by a trained observer blind to the treatments.

[7] = target: serotonin 5-HT1A receptor; design: method as in PMID 26554929; conditions: previous experiments; read-out: 5-HT1A receptor antagonist IC50; cited from earlier work
[8] = mouse, other: intravenous and intraperitoneal (both arms), after i.v. and i.p. administration
[9] = corticosterone 20 mg/kg s.c. 21 days + saline

Row | SMILES | Kp ([1]; CD-1, mouse, ip) | Kp ([1]; CD-1, mouse, iv) | Kp [1, 8] | effect on corticosterone-induced decrease in number of open arm entries ([2]; 2.5 mg/kg i.p., 21 days) | effect on corticosterone-induced decrease in time spent in the open arms ([2]; 2.5 mg/kg i.p., 21 days) | number of open arms entries compared with fluoxetine ([2]; 2.5 mg/kg i.p., 21 days, vs fluoxetine 10 mg/kg) | type of antagonism at 5-HT3 receptors [3] | Kd [3] | antihistaminic activity [4] | cholinolytic activity [5] | effect on corticosterone-induced increase in immobility ([6]; 1.25 or 2.5 mg/kg i.p.) | IC50 [7] | effect on corticosterone-induced decrease in number of open arm entries ([2]; 10 mg/kg i.p., 21 days) | effect on corticosterone-induced decrease in time spent in the open arms ([2]; 10 mg/kg i.p., 21 days) | effect on corticosterone-induced increase in immobility ([6]; 10 mg/kg i.p.) | decrease in open arm entries vs control [2, 9] | decrease in time spent in the open arms vs control [2, 9] | increase in immobility vs control [6, 9] | Tmax ([1]; CD-1, mouse, brain, ip, 1.25 mg/kg, read-out: time of maximal concentration in the brain (converted)) | effect on corticosterone-induced increase in immobility ([6]; 1.25 mg/kg i.p.)
1 | COc1ccccc1N1CCN(CCOCCOc2c(C)cccc2C)CC1.Cl [HBK-14, 1-[(2,6-Dimethylphenoxy)ethoxyethyl]-4-(2-methoxyphenyl)piperazine hydrochloride] | 0.46 | 0.8 | < 1 | prevented the decreases | prevented the decreases in the time spent in the open arms | significantly increased | non-competitive antagonism | 11.2 nM | negligible | negligible | inactive | 64 nM |  |  |  |  |  |  |  | 
2 | CNCCC(Oc1ccc(C(F)(F)F)cc1)c1ccccc1 (stereo not drawn) [fluoxetine, reference compound] |  |  |  |  |  |  |  |  |  |  |  |  | prevented the decreases | prevented the decreases in the time spent in the open arms | prevented an increase in immobility |  |  |  |  | 
3 | C[C@]12C[C@H](O)[C@H]3[C@@H](CCC4=CC(=O)CC[C@@]43C)[C@@H]1CC[C@@H]2C(=O)CO [corticosterone] |  |  |  |  |  |  |  |  |  |  |  |  |  |  |  | 56% and 48% | 48% | 14% and 21% |  | 
4 | COc1ccccc1N1CCN(CCOCCOc2c(C)cccc2Cl)CC1.Cl [HBK-15, 1-[(2-chloro-6-methylphenoxy)ethoxyethyl]-4-(2-methoxyphenyl)piperazine hydrochloride] | 0.27 | 0.68 | < 1 | prevented the decreases | prevented the decreases in the time spent in the open arms |  | non-competitive interaction with 5-HT3 receptors | 43.6 nM | negligible | negligible |  | 19 nM |  |  |  |  |  |  | 5 min | prevented an increase in immobility
